Literature values as cited in US8414913B2, “Edible compositions for lowering cholesterol” (Raisio Benecol Oy, priority 2001, dated 2013).

Tested on: total and low density lipoprotein (LDL) cholesterol level
Settings: diets with high β-glucan content; Ripsin et al. 1992, Braaten et al. 1994

β-glucan
lowering of total and LDL cholesterol level: 8-12%
